Measurements from ChEMBL document CHEMBL5608259 (J Med Chem, 2024).
The source made the active and inactive calls. The calls are words filed in the database; no cut-off is given here.

How the values were obtained:
[1] = target: Protein arginine N-methyltransferase 1 (Homo sapiens, UniProt Q99873); assay: Inhibition of human PRMT1 using H4-21peptide as substrate at 10 uM incubated for 10 mins by fluorescence based analysis relative to control
[2] = target: Protein arginine N-methyltransferase 3 (Homo sapiens, UniProt O60678); assay: Inhibition of human PRMT3 using H4-21peptide as substrate at 10 uM incubated for 10 mins by fluorescence based analysis relative to control
Sequence of Protein arginine N-methyltransferase 3 (O60678 2-531 limits assumed): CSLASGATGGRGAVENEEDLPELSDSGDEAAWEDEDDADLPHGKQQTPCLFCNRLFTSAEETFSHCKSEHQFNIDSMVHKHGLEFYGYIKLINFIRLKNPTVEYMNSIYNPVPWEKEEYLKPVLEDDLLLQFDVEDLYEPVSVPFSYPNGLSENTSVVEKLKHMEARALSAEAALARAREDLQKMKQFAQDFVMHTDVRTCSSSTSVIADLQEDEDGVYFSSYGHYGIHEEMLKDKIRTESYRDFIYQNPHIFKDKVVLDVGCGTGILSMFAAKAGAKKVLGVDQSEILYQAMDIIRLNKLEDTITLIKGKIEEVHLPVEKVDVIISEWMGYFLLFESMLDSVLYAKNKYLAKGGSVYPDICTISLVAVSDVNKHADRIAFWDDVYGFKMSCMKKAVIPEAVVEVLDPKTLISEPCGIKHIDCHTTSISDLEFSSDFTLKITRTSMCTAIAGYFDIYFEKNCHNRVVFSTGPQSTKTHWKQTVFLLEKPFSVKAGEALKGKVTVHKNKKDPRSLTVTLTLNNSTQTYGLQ

[3] = target: T1, Histone-arginine methyltransferase CARM1 (Homo sapiens) (UniProt Q86X55); assay: Inhibition of human PRMT4 using histone H3 as substrate and SAM as cofactor at 10 uM by radiometric HotSpot assay relative to control
T1 sequence (whole entry): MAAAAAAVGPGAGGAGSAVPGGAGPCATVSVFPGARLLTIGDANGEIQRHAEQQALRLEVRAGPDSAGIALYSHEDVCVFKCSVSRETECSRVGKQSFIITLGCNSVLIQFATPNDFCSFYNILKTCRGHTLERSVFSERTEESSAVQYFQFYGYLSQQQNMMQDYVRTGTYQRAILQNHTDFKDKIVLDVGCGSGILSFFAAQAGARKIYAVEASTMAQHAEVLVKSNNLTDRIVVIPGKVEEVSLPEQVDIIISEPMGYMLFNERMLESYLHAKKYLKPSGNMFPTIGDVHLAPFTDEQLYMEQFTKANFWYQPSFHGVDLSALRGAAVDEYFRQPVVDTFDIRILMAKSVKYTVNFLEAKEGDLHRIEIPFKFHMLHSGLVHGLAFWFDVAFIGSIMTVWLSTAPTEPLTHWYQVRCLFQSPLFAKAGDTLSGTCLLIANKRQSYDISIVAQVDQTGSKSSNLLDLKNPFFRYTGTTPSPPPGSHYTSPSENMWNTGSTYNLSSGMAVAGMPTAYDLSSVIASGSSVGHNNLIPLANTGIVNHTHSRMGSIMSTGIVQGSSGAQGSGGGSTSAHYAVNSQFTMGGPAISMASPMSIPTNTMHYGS

[4] = target: Protein arginine N-methyltransferase 6 (Homo sapiens, UniProt Q96LA8); assay: Inhibition of human PRMT6 using GST-GAR as substrate and SAM as cofactor at 10 uM by radiometric HotSpot assay relative to control
Sequence of Protein arginine N-methyltransferase 6 (Q96LA8 whole entry, looked up): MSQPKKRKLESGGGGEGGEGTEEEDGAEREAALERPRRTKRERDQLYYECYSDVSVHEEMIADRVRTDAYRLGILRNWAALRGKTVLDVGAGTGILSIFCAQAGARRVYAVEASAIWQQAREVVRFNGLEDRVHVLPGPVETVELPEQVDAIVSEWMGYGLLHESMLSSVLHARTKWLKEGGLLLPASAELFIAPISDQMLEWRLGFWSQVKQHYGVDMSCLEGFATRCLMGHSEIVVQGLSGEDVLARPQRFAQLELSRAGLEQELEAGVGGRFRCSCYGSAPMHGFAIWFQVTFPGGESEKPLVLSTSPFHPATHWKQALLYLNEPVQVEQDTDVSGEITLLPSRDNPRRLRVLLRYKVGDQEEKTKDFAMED

[5] = target: Protein arginine N-methyltransferase 8 (Homo sapiens, UniProt Q9NR22); assay: Inhibition of human PRMT8 using Histone H4 as substrate and SAM as cofactor at 10 uM by radiometric HotSpot assay relative to control
Sequence of Protein arginine N-methyltransferase 8 (Q9NR22 2-394 limits assumed): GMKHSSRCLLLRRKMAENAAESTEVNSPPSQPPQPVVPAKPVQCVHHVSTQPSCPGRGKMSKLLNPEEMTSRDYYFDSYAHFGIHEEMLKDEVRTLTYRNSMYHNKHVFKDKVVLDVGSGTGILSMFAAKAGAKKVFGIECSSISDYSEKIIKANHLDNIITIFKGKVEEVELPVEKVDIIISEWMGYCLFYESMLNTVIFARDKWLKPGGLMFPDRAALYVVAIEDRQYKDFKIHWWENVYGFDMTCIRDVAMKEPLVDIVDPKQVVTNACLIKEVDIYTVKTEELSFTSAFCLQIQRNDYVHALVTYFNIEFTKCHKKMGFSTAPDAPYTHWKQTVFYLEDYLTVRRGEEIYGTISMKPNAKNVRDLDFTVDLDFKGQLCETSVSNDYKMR

[6] = target: T2, Histone-arginine methyltransferase CARM1 (Homo sapiens, UniProt Q86X55); assay: Inhibition of human PRMT4 using histone H3 as substrate and SAM as cofactor by radiometric HotSpot assay
T2 sequence (Q86X55 whole entry): T1 sequence (whole entry)

[7] = test system: MDA-MB-231; assay: Inhibition of colony formation in human MDA-MB-231 cells at 10 uM incubated for 2 weeks by crystal violet staining based analysis relative to control; format: functional; conditions: MDA-MB-231, 336 h

Sequence of Protein arginine N-methyltransferase 1 (Q99873 whole entry, looked up): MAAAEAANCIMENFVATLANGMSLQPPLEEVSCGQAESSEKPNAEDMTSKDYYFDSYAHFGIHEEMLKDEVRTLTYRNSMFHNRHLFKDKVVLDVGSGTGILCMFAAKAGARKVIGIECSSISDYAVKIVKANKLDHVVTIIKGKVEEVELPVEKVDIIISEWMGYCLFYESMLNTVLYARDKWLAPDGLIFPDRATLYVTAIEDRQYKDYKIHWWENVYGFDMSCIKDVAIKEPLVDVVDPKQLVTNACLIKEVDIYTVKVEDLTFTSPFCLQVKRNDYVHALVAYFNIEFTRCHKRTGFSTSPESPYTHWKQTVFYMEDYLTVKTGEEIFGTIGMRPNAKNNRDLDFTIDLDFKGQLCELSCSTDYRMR

Compound	inhibition [1]	inhibition [2] [%]	inhibition [3]	inhibition [4]	inhibition [5] [%]	IC50 [6] [nM]	inhibition at 10 µM [7] [%]
N=C(NCCCSC[C@H]1O[C@@H](n2cnc3c(NCCCc4ccccc4)ncnc32)[C@H](O)[C@@H]1O)NCCCc1ccccc1	Active	< 30	Active	Active	70		
N=C(NCCCSC[C@H]1O[C@@H](n2cnc3c(NCCCc4ccccc4)ncnc32)[C@H](O)[C@@H]1O)NCCc1ccccc1	Active	< 30	Active	Active	70		
Nc1ncnc2c1ncn2[C@@H]1O[C@H](CSCCCNCc2cccc(-c3cncnc3)c2)[C@@H](O)[C@H]1O		< 30	> 90%	50%	> 50	49	
Nc1ncnc2c1ncn2[C@@H]1O[C@H](CSCCNCc2cccc(-c3ccoc3)c2)[C@@H](O)[C@H]1O		< 30	> 90%	50%	> 50	1.2	
Nc1ncnc2c1ncn2[C@@H]1O[C@H](CSCCCNC(=O)NCc2ccc3c(c2)OCO3)[C@@H](O)[C@H]1O	< 50%	3	27%	70%	< 30		
Nc1ncnc2c1ncn2[C@@H]1O[C@H](CSCCNCc2cccc(-c3cncnc3)c2)[C@@H](O)[C@H]1O		< 30	> 90%	50%	> 50	9.3	
N=C(NCCCSC[C@H]1O[C@@H](n2cnc3c(NCCCc4ccccc4)ncnc32)[C@H](O)[C@@H]1O)NCc1ccccc1	Active	< 30	Active	Active	70		
N=C(NCCCSC[C@H]1O[C@@H](n2cnc3c(NCCCc4ccccc4)ncnc32)[C@H](O)[C@@H]1O)NC1CCC1	Active	< 30	Active	Active	70		
N=C(NCCCSC[C@H]1O[C@@H](n2cnc3c(NCCCc4ccccc4)ncnc32)[C@H](O)[C@@H]1O)NC1CCCC1	Active	< 30	Active	Active	70		
Nc1ncnc2c1ncn2[C@@H]1O[C@H](CSCCNC(=O)NCc2ccc(-c3cccc(O)c3)cc2)[C@@H](O)[C@H]1O	< 50%	3	27%	70%	< 30		
CNC[C@@H](O)COc1ccc(Cl)c(-c2nc(-c3c(C)noc3C)c(C)c(N3CC4(CCN(C(=O)OC)CC4)C3)n2)c1							30
N=C(NCCCSC[C@H]1O[C@@H](n2cnc3c(NCCCc4ccccc4)ncnc32)[C@H](O)[C@@H]1O)NCC1CCC1	Active	< 30	Active	Active	70		
N=C(NCCCSC[C@H]1O[C@@H](n2cnc3c(NCCCc4ccccc4)ncnc32)[C@H](O)[C@@H]1O)NC1CCCCC1	Active	< 30	Active	Active	70		
Nc1ncnc2c1ncn2[C@@H]1O[C@H](CSCCNC(=O)NCc2ccc(-c3ccc(O)cc3)cc2)[C@@H](O)[C@H]1O	< 50%	3	27%	70%	< 30		
Nc1cccc(-c2ccc(CNC(=O)NCCSC[C@H]3O[C@@H](n4cnc5c(N)ncnc54)[C@H](O)[C@@H]3O)cc2)c1	< 50%	3	27%	70%	< 30		
COc1cc2nc(-c3ccc(Cl)cc3)nc(NCCSC[C@H]3O[C@@H](n4cnc5c(N)ncnc54)[C@H](O)[C@@H]3O)c2cc1OC	inactive	< 30		> 70%	< 50		
Nc1ncnc2c1ncn2[C@@H]1O[C@H](CSCCNC(=O)NCc2ccccc2)[C@@H](O)[C@H]1O	< 50%	> 50	> 90%	70%	< 30		
CCCCNC(=N)NCCCSC[C@H]1O[C@@H](n2cnc3c(NCCCc4ccccc4)ncnc32)[C@H](O)[C@@H]1O	Active	< 30	Active	Active	70		
N=C(NCCCO)NCCCSC[C@H]1O[C@@H](n2cnc3c(NCCCc4ccccc4)ncnc32)[C@H](O)[C@@H]1O	Active	< 30	Active	Active	70		
N=C(NCCCSC[C@H]1O[C@@H](n2cnc3c(NCCCc4ccccc4)ncnc32)[C@H](O)[C@@H]1O)Nc1ccccc1	Active	< 30	Active	Active	70		
COc1cc2nc(-c3ccc(O)cc3)nc(NCCSC[C@H]3O[C@@H](n4cnc5c(N)ncnc54)[C@H](O)[C@@H]3O)c2cc1OC	inactive	< 30		> 70%	< 50		
CNCCN1CCC(c2cc(CN(C)C(=O)c3cccc(Oc4ccccc4)c3)ccn2)CC1							30
Nc1ccc(-c2ccc(CNC(=O)NCCSC[C@H]3O[C@@H](n4cnc5c(N)ncnc54)[C@H](O)[C@@H]3O)cc2)cc1	< 50%	3	27%	70%	< 30		
N=C(NCCCSC[C@H]1O[C@@H](n2cnc3c(NCCCc4ccccc4)ncnc32)[C@H](O)[C@@H]1O)NCC1CC1	Active	< 30	Active	Active	70		
Nc1ncnc2c1ncn2[C@@H]1O[C@H](CSCCOc2ccc(-c3ccc(O)cc3)cc2)[C@@H](O)[C@H]1O	inactive	< 30		< 50%	< 50		
N=C(NCCCSC[C@H]1O[C@@H](n2cnc3c(NCCCc4ccccc4)ncnc32)[C@H](O)[C@@H]1O)NC1CC1	Active	< 30	Active	Active	70		
Nc1ncnc2c1ncn2[C@@H]1O[C@H](CSCCOc2ccc(-c3ccc(Cl)cc3)cc2)[C@@H](O)[C@H]1O	inactive	< 30		< 50%	< 50		
N=C(NCCCN)NCCCSC[C@H]1O[C@@H](n2cnc3c(NCCCc4ccccc4)ncnc32)[C@H](O)[C@@H]1O	Active	< 30	Active	Active	70		
